{"source": "patent US20240238318A1", "about": "“L-FUCOSE AND ANTI-ANDROGEN RECEPTOR THERAPY FOR TREATMENT OF CANCER” (H. LEE MOFFITT CANCER CENTER AND RESEARCH INSTITUTE, INC., priority 2021, published 2024)", "test_system": "tumor growth and metastasis", "test": "dietary L-fucose supplementation in mouse tumor models", "type": "in vivo", "from_the_text": "Global fucosylation is reduced during progression in human melanomas (UEA1 fucose-binding lectin staining analysis of tumor microarray (TMA; n=˜300 patients)) via an ATF2-mediated transcriptional repression of fucokinase (FUK). However, AR transcriptionally upregulates Fucosyltransferase 4 (FUT4) expression via binding to the ARE motif in FUT4 promoter (FIG. 3). Additionally, the global tumor fucosylation is more pronounced in males relative to females (FIG. 4). […] Furthermore, the AR-FUT4 axis facilitates melanoma invasion via disrupting N-Cadherin/catenin junction complexes (FIG. 6). […] Thus, FUT4 is required for androgen-stimulated melanoma cell viability and motility (FIG. 7)."}
{"smiles": "C[C@H](O)[C@@H](O)[C@@H](O)[C@H](O)C=O", "note": "[L-fucose]", "values": [{"measurement": "block of tumor growth and metastasis", "value": "> 50", "unit": "%"}]}
